Measured values published in patent publication US9012223B2, “Methods for enhancing genome stability and telomere elongation in embryonic stem cells” (The United States of America, as represented by the …, priority 2009, dated 2015).

Assays:
Zscan4 [1] = experiment: Time-course of Emerald GFP+ (Zscan4+) cells by flow cytometry after retinoid treatment; assay type: cell-based, mouse; details: for day of peak of fraction of Zscan4+ cells / fraction of Zscan4+ cells / secondary increase of Zscan4+ cells: atRA, 9-cis RA, 13-cis RA 50 nM; for day of peak of fraction of Zscan4+ cells / secondary increase of Zscan4+ cells: vitamin A 5 μM; for fraction of Zscan4+ cells: vitamin A 5 μM final concentration, up to 7 days; for secondary increase of Zscan4+ cells: within 7 days of treatment
Excerpt: FIG. 9 is a line graph showing the percentage of Emerald cells following treatment of MC1-ZE7 cells in the presence or absence of leukemia inhibitory factor (LIF) and in the presence or absence of retinoic acid (RA). Cells were passaged to gelatin-coated plates in the presence of LIF (LIF+) and absence of atRA (atRA−). The next day (Day 0), the culture medium of each well was changed to four different conditions: LIF+ atRA−, LIF+ atRA+, LIF− atRA−, and LIF− atRA+. The cells were maintained in the same culture medium for 8 days with the medium changes every day, but without passaging. Cells were harvested every day and the number of Emerald GFP^+ cells was measured by flow cytometry.
(§1) FIG. 10A is a line graph showing the effect of different retinoids (atRA, 9-cis RA, 13-cis RA or vitamin A) on the percentage of Zscan4^+ cells in culture. Shown is the percentage of Emerald^+ MC1-ZE-7 cells up to seven days following exposure to the retinoid. FIG. 10B is a line graph showing the effect of the different reintoids on ES cell proliferation.
A 20 mM stock solution of all-trans retinoic acid (atRA) in ethanol was used at a final concentration of 1 μM, 2 μM, or 50 nM. 9-cis RA and 13-cis RA were used at a final concentration of […] final. Vitamin A (retinol) was used at a final concentration of 5 μM.
Zscan4 Expression is Induced Transiently by all-Trans Retinoic Acid (atRA) Mouse ES cells (referred to as pZscan4-Emerald7 (MC1-ZE7) cells) in which a plasmid carrying a green fluorescent protein (Emerald: Em) regulated under the promoter of Zscan4c is integrated in the genome were used in these studies. […] Cells were first passaged to gelatin-coated plates in the presence of leukemia inhibitory factor (LIF+) and absence of atRA (atRA−). The next day (Day 0), the culture medium of each well was changed to four different conditions: LIF+ atRA−, LIF+ atRA+, LIF− atRA−, and LIF− atRA+. The final concentration of atRA was […]. The cells were maintained in the same culture medium for 8 days with medium changes every day, but without passaging. Cells were harvested every day and the number of Emerald GFP^+ cells was measured by flow cytometry (Guava).
(§2) Although atRA is most commonly used for mammalian cell culture systems, there are other retinoids that sometimes have similar activities on the cells. To test other retinoids for Zscan4-inducibility, similar time-course kinetic assays were carried out using atRA (50 nM final concentration), 9-cis RA (50 nM final concentration), 13-cis RA (50 nM final concentration), or vitamin A (5 μM final concentration). […] Zscan4^+ cells may have growth advantages over Zscan4^− cells in the presence of vitamin A and 13-cis RA.

MC1-ZE7 cells = experiment: Effect of retinoids on ES cell proliferation; assay type: cell-based, mouse; details: atRA, 9-cis RA, 13-cis RA 50 nM, vitamin A 5 μM; up to 7 days
Excerpt: as §1, §2

Zscan4 [2] = details: MC1-ZE7 cells, LIF+; H2O2 100 μM, 300 μM or 1000 μM; two days
Method: MC1-ZE7 cells were cultured in standard ES cell medium (LIF+). […] The cells were cultured for two days and the fraction of Emerald^+ (i.e., Zscan4^+ cells) was measured by flow cytometry.
MC1-ZE7 cells were cultured in standard ES cell medium (LIF+). […] The cells were cultured for two days and the percentage of Em^+ (i.e., Zscan4^+ cells) was determined by the Guava flow cytometry (Guava).

ES cells = experiment: Survival of ES cells after treatment with DNA-damaging agent (live cell count); assay type: cell-based, mouse; details: then 3 more days
Method: FIGS. 12A and 12B are graphs showing survival of control ES cells (A) and tet-Zscan4 ES cells (B) after treatment with mitomycin C (MMC). Control ES cells contained a control plasmid (tet-Empty). Cells were cultured in standard ES medium (LIF+) and passaged into two groups: (1) in the absence of doxycycline (Dox) or (2) in the presence of Dox at a final concentration of 0.2 μg/ml. The Dox+ and Dox− media were changed every day. On the fourth day, the cells were cultured for 6 hours in the presence of MMC at a final concentration ranging from 0 to 600 ng/ml. MMC was removed from the culture by changing the media and cells were then incubated for 3 more days in the Dox+ medium, with the medium changed every day. Cells were harvested and the number of live cells was counted.
Control cells (carrying the tet-Empty plasmid) and Zscan4-expressing cells (carrying the tet-Zscan4 plasmid) were used in this study. The cells were cultured in standard ES medium (LIF+). Cells were passaged into two groups: (1) in the absence of doxycycline (Dox−), or (2) in the presence of doxycycline (Dox+) at a final concentration of 0.2 μg/ml. The Dox+ and Dox− media were changed every day. On the fourth day, the cells were cultured for 6 hours in the presence of MMC at a final concentration ranging from 0 to 600 ng/ml. […] Cells were harvested and the number of live cells was counted.

[3] = MC1-ZE7 cells, atRA 2 M (so in the source), LIF+ and LIF-

Row | SMILES | day of peak of fraction of Zscan4+ cells (Zscan4 [1]; MC1-ZE7 cells) [days] | fraction of Zscan4+ cells (Zscan4 [1]; MC1-ZE7 cells) | secondary increase of Zscan4+ cells (Zscan4 [1]) | effect on cell proliferation (MC1-ZE7 cells) | number (percentage) of Zscan4+ (Em+) cells (Zscan4 [2]) | survival of Zscan4-expressing (tet-Zscan4) ES cells against the DNA-damaging agent, Dox- versus Dox+ (ES cells; Zscan4 induced by Dox removal, agent for 6 hours) | cell survival rate (ES cells; control (tet-Empty) ES cells, MMC 0 to 600 ng/ml for 6 hours) | decline of Zscan4+ cell induction to basal level (Zscan4 [1]; [3]) | time of peak of Em+ (Zscan4+) cell fraction (Zscan4 [1]; [3]) | fraction of Em+ cells (i.e., Zscan4+ cells) in the culture (Zscan4 [1]; MC1-ZE7 cells, atRA 2 M (so in the source), LIF+ and LIF- conditions, 8 days, daily harvest)
1 | CC1=C(/C=C/C(C)=C\C=C\C(C)=C\C(=O)O)C(C)(C)CCC1 [9-cis RA, 9-cis retinoic acid] | 2 | transiently increased | not | nearly complete suppression of cell proliferation | – | – | – | – | – | –
2 | CC1=C(/C=C/C(C)=C/C=C/C(C)=C\C(=O)O)C(C)(C)CCC1 [13-cis RA, 13-cis-retinoic acid] | 2 | transiently increased | observed | moderate suppression of cell proliferation | – | – | – | – | – | –
3 | OO [H2O2, Hydrogen peroxide] | – | – | – | – | increases the number of Zscan4^+ cells | – | – | – | – | –
4 | CO[C@@]12[C@H](COC(N)=O)C3=C(C(=O)C(C)=C(N)C3=O)N1C[C@@H]1N[C@@H]12 [MMC, mitomycin C] | – | – | – | – | – | increased survival | the higher the dose of MMC, the lower the cell survival rate | – | – | –
5 | CC1=C(/C=C/C(C)=C/C=C/C(C)=C/C(=O)O)C(C)(C)CCC1 [atRA, all-trans retinoic acid] | 2 | transiently increased | not | nearly complete suppression of cell proliferation | – | – | – | declined to the basal level by the fourth day | peaked on the second day | dramatically induced
6 | CC1=C(/C=C/C(C)=C/C=C/C(C)=C/CO)C(C)(C)CCC1 [vitamin A, retinol] | 2 | transiently increased | observed | did not affect cell proliferation | – | – | – | – | – | –
